Data as given in patent publication US20260007684A1, “AMIDE DERIVATIVES FOR INHIBITING NLRP3 AND USES THEREOF” (Ventus Therapeutics U.S., Inc., priority 2023, published 2026).
pIC50: −log10 of the molar value. Read-outs that look alike come from different tables or passages of the source.

Experiments:
human NLRP3 [1] = molecular target: T1, human NLRP3 (Homo sapiens (Human), UniProt Q96P20); experiment: Scintillation Proximity (SPA) NLRP3 Assay: displacement of 3H-MCC950; format: binding; settings: for pIC50: read-out: SPA IC50
human NLRP3 [2] = molecular target: T1, human NLRP3; experiment: Human Whole Blood (hWB) NLRP3 Assay (LPS/ATP, IL-1β); format: cell-based
human NLRP3 [3] = molecular target: T1, human NLRP3; experiment: Human PBMC NLRP3 Assay (LPS priming, ATP stimulation, cytokine measurement); format: cell-based
mouse NLRP3 = mouse NLRP3 (Mus musculus (Mouse), UniProt Q8R4B8); experiment: Mouse Whole Blood (mWB) NLRP3 Assay (LPS/ATP, IL-1b); format: cell-based
Description: Reagents: The following reagents were used: blood collection tubes (Heparin); U-bottom 96-well tissue culture (Falcon 353077); HBSS for LPS, ATP and compound dilutions (Gibco 24020-117); and LPS, E. coli serotype 026:B6 (Sigma L-2654).
Mouse IL-1b MSD assay: Blood was drawn from female CD1 mice (9 to 10 weeks) by cardiac puncture. Blood was plated (135 μL) per well in 96-well U-bottom plates. 7.5 μL of 20×LPS (20 μg/mL, final concentration of 1 μg/mL) was added and mixed by gentle pipetting, and the mixture was incubated in a TC incubator for five hours. 7.5 μL of 20× compound or vehicle per well was added and mixed by gentle pipetting. Compounds were diluted 1/50 in HBSS to prepare a 20× dilution curve in […].
The mixture was incubated for 30 minutes in a TC incubator with shaking (450 rpm). 5 μl of 31×ATP (155 mM, final concentration of 5 mM) was added and mixed by gentle pipetting. The mixture was incubated in a TC incubator for 30 minutes with shaking (450 rpm). The plate was centrifuged for 10 minutes at 800×g and −70 μL of plasma was removed. Plasma was frozen if required. Mouse IL-1b was analyzed with IL-1b MSD assay (K152TUK).
Compounds were added 30 minutes before priming the cells with LPS when TNFα was required to be quantified in the cytokine panel to confirm selectivity.

[4] = human whole blood, LPS/ATP, IL-1β, read-out: hWB IC50
[5] = human PBMC, LPS priming, ATP stimulation, read-out: PBMC IC50
[6] = mouse whole blood, LPS/ATP, IL-1b
[7] = hWB IC50, human whole blood, LPS/ATP, IL-1β
[8] = PBMC IC50, human PBMC, LPS priming, ATP stimulation
[9] = relative to Comparative Example A*

T1 sequence (Q96P20 whole entry): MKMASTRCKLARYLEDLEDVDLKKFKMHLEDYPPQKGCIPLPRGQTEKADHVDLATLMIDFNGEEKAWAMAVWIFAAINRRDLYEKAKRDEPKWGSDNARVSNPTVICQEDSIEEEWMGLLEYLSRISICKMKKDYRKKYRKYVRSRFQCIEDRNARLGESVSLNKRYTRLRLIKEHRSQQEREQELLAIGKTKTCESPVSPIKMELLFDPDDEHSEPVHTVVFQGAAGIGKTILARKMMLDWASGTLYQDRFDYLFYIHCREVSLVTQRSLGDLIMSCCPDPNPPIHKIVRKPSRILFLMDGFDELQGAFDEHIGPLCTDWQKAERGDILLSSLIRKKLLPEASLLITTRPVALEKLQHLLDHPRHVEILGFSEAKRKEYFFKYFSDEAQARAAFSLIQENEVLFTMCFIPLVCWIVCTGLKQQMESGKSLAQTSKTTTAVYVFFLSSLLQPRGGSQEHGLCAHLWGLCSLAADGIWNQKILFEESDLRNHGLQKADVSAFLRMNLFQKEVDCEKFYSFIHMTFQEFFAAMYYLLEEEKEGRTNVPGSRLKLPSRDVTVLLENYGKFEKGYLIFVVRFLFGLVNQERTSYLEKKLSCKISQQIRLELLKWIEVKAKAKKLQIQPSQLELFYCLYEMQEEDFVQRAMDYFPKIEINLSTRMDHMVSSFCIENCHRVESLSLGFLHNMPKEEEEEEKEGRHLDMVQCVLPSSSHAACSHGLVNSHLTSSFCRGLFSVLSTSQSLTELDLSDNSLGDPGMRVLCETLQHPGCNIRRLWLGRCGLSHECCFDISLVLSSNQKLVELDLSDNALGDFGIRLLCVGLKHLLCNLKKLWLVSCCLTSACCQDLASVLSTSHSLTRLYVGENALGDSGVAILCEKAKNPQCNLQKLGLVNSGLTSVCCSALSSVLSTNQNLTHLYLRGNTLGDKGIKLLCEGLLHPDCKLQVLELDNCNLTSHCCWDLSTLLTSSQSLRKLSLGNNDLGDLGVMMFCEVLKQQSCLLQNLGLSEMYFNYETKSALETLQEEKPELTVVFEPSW
Chain of mouse NLRP3 (Q8R4B8 whole entry): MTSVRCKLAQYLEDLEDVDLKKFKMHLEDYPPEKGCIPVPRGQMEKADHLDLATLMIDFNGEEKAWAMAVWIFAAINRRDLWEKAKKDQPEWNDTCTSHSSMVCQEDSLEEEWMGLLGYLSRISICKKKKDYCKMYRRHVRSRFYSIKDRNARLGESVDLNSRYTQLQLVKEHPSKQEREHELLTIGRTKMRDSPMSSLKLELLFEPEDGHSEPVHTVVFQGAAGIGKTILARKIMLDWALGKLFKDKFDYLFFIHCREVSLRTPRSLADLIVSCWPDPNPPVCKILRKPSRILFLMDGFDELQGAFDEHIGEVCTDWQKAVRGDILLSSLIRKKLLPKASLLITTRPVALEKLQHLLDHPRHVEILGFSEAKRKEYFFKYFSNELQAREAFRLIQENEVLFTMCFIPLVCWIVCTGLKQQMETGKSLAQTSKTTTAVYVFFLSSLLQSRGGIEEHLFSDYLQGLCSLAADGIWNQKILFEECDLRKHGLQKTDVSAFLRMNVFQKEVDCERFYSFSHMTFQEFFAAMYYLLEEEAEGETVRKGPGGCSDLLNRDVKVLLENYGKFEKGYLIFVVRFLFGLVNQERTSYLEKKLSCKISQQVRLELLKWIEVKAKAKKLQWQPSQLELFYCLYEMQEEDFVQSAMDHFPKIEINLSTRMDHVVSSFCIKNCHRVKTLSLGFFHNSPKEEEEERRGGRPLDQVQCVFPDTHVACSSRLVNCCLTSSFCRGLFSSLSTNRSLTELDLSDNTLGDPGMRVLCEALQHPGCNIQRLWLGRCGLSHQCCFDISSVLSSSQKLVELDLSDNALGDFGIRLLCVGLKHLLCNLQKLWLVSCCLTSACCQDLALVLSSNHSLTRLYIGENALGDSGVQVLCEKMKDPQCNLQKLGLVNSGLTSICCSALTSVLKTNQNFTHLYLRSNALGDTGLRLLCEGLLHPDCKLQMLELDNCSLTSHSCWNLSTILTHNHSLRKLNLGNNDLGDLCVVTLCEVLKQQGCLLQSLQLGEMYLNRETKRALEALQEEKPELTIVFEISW

SMILES	pIC50 (human NLRP3 [1]; displacement of 3H-MCC950)	pIC50 (human NLRP3 [2]; [4])	pIC50 (human NLRP3 [3]; [5])	pIC50 (mouse NLRP3; [6])	pIC50 (human NLRP3 [1])	pIC50 (human NLRP3 [3]; read-out: PBMC IC50)	further results
C[C@@H]1CCN(c2nnn[nH]2)C[C@H](NC(=O)C2(c3ccc(Cl)cc3)CC2)C1 (single isomer, unassigned) [12A*, 1-(4-chlorophenyl)-N-(5-methyl-1-(1H-tetrazol-5-yl)azepan-3-yl)cyclopropane-1-carboxamide]	> 6.00	> 6.00	> 8.00	> 6.00			
O=C(N[C@@H]1CC[C@H]2CC[C@@H]1N2c1nnn[nH]1)C1(c2ccc(C(F)(F)F)cc2O)CC1 (single isomer, unassigned) [34C*]	> 6.00			> 6.00			pIC50 (human NLRP3 [2]; [7]): > 6.00; pIC50 (human NLRP3 [3]; [8]): 7.00 to 8.00
C[C@@H]1C[C@@H](NC(=O)C2(c3ccc(OC(F)F)cc3)CC2)[C@H]2CC[C@@H]1N2c1nnn[nH]1 (single isomer, unassigned) [35A*]	> 6.00			> 6.00			pIC50 (human NLRP3 [2]; [7]): > 6.00; pIC50 (human NLRP3 [3]; [8]): > 8.00
O=C(N[C@H]1CN(c2nnn[nH]2)CCC(F)(F)C1)C1(c2ccc(Cl)cc2)CC1 (single isomer, unassigned) [53A*]	> 6.00	> 6.00		> 6.00			
C[C@H]1C[C@@H](NC(=O)C2(c3c(O)cc(C4CC4)cc3C(F)F)CC2)CN(c2nnn[nH]2)C1 (single isomer, unassigned) [97A*]	> 6.00		6.30 to 7.00	> 6.00			
C[C@@H]1C[C@@H](NC(=O)C2(c3ccc(C(F)(F)F)cc3)CC2)[C@H]2CC[C@@H]1N2c1nnn[nH]1 [79A*, N-((1R,2R,4R,5S)-4-methyl-8-(1H-tetrazol-5-yl)-8-azabicyclo[3.2.1]octan-2-yl)-1-(4-(trifluoromethyl)phenyl)cyclopropane-1-carboxamide]	> 6.00			> 6.00			pIC50 (human NLRP3 [2]; [7]): > 6.00; pIC50 (human NLRP3 [3]; [8]): > 8.00
O=C(Nc1cccc(-c2nnn[nH]2)c1)C1(c2ccc(Cl)cc2)CC1 [Comparative Example B1, N-(3-(1H-tetrazol-5-yl)phenyl)-1-(4-chlorophenyl)cyclopropane-1-carboxamide, reference compound]					5.10	6.32	pIC50 (mouse NLRP3): < 4.30
O=C(N[C@@H]1CCCN(c2nnn[nH]2)C1)C1(c2ccc(Cl)cc2)CC1 [Compound 10A, (R)-N-(1-(1H-tetrazol-5-yl)piperidin-3-yl)-1-(4-chlorophenyl)cyclopropane-1-carboxamide]	5.00 to 6.00	< 5.52	< 6.30	5.70 to 6.00	5.02	5.68	fold increase in binding activity (SPA IC50) (human NLRP3 [1]; [9]): > 40 fold; pIC50 (human NLRP3 [2]; read-out: hWB IC50): 5.14; fold increase in potency as measured by hWB IC50 (human NLRP3 [2]; [9]): > 6 fold; fold increase in potency as measured by PBMC IC50 (human NLRP3 [3]; relative to Comparative Example F): 4 fold; fold increase in potency as measured by PBMC IC50 (human NLRP3 [3]; relative to Comparative Example G): > 47 fold; fold increase in potency as measured by PBMC IC50 (human NLRP3 [3]; relative to Comparative Example H): 5 fold; fold increase in potency as measured by PBMC IC50 (human NLRP3 [3]; relative to Comparative Example J1): > 47 fold; fold increase in potency as measured by PBMC IC50 (human NLRP3 [3]; relative to Comparative Example J2): > 47 fold; pIC50 (mouse NLRP3): 5.72; fold increase in potency as measured by mWB IC50 (mouse NLRP3; relative to Comparative Example B1): 26 fold
C[C@H]1C[C@@H](NC(=O)C2(c3ccc(C(F)(F)F)cc3O)CC2)CN(c2nnn[nH]2)C1 [Compound 16A, 1-(2-hydroxy-4-(trifluoromethyl)phenyl)-N-((3R,5S)-5-methyl-1-(1H-tetrazol-5-yl)piperidin-3-yl)cyclopropane-1-carboxamide]	> 6.00	> 6.00	> 8.00	> 6.00	7.39	8.37	pIC50 (human NLRP3 [2]; read-out: hWB IC50): 7.21; pIC50 (mouse NLRP3): 7.09
C[C@H]1C[C@@H](NC(=O)C2(c3ccc(OC(F)(F)F)cc3O)CC2)CN(c2nnn[nH]2)C1 [Compound 17A, 1-(2-hydroxy-4-(trifluoromethoxy)phenyl)-N-((3R,5S)-5-methyl-1-(1H-tetrazol-5-yl)piperidin-3-yl)cyclopropane-1-carboxamide]	> 6.00	> 6.00	7.00 to 8.00		7.01	7.77	pIC50 (human NLRP3 [2]; read-out: hWB IC50): 6.64
C[C@H]1C[C@@H](NC(=O)C2(c3ccc(OC(F)F)cc3O)CC2)CN(c2nnn[nH]2)C1 [Compound 19A, 1-(4-(difluoromethoxy)-2-hydroxyphenyl)-N-((3R,5S)-5-methyl-1-(1H-tetrazol-5-yl)piperidin-3-yl)cyclopropane-1-carboxamide]	> 6.00	> 6.00	7.00 to 8.00				
Cc1ccc(C2(C(=O)N[C@@H]3C[C@H](C)CN(c4nnn[nH]4)C3)CC2)c(O)c1 [Compound 20A, 1-(2-hydroxy-4-methylphenyl)-N-((3R,5S)-5-methyl-1-(1H-tetrazol-5-yl)piperidin-3-yl)cyclopropane-1-carboxamide]	> 6.00	> 6.00	7.00 to 8.00				
C[C@H]1C[C@@H](NC(=O)C2(c3ccc(C4CC4)cc3O)CC2)CN(c2nnn[nH]2)C1 [Compound 23A, 1-(4-cyclopropyl-2-hydroxyphenyl)-N-((3R,5S)-5-methyl-1-(1H-tetrazol-5-yl)piperidin-3-yl)cyclopropane-1-carboxamide]	> 6.00	> 6.00	7.00 to 8.00				
C[C@H]1C[C@@H](NC(=O)C2(c3ncc(C(F)(F)F)cc3O)CC2)CN(c2nnn[nH]2)C1 [Compound 25A, 1-(3-hydroxy-5-(trifluoromethyl)pyridin-2-yl)-N-((3R,5S)-5-methyl-1-(1H-tetrazol-5-yl)piperidin-3-yl)cyclopropane-1-carboxamide]	> 6.00	< 5.52	6.30 to 7.00				
Cc1cc(Cl)cc(O)c1C1(C(=O)N[C@@H]2C[C@H](C)CN(c3nnn[nH]3)C2)CC1 [Compound 33A, 1-(4-chloro-2-hydroxy-6-methylphenyl)-N-((3R,5S)-5-methyl-1-(1H-tetrazol-5-yl)piperidin-3-yl)cyclopropane-1-carboxamide]	> 6.00	< 5.52	7.00 to 8.00				
O=C(N[C@@H]1CCCN(c2nnn[nH]2)C1)C1(c2ccc(Br)cc2)CC1 [Compound 39A, 1-(4-bromophenyl)-N-[(3R)-1-(1H-tetrazol-5-yl)-3-piperidyl]cyclopropanecarboxamide]	5.00 to 6.00	5.70 to 6.00		5.70 to 6.00			
O=C(N[C@@H]1C[C@H](C(F)(F)F)CN(c2nnn[nH]2)C1)C1(c2ccc(Cl)cc2)CC1 [Compound 45A, 1-(4-chlorophenyl)-N-[(3R,5S)-1-(1H-tetrazol-5-yl)-5-(trifluoromethyl)-3-piperidyl]cyclopropanecarboxamide]	5.00 to 6.00	5.52 to 5.70		> 6.00			
C[C@H]1C[C@@H](NC(=O)C2(c3ccc(Cl)cc3)CC2)CN(c2nnn[nH]2)C1 [Compound 46A, 1-(4-chlorophenyl)-N-((3R,5S)-5-methyl-1-(1H-tetrazol-5-yl)piperidin-3-yl)cyclopropane-1-carboxamide]	> 6.00	5.52 to 5.70	7.00 to 8.00	> 6.00	6.07	7.00	fold increase in binding activity (SPA IC50) (human NLRP3 [1]; relative to Compound 10A): 11 fold; pIC50 (human NLRP3 [2]; read-out: hWB IC50): 5.60; fold increase in potency as measured by hWB IC50 (human NLRP3 [2]; relative to Compound 10A): 3 fold; fold increase in potency as measured by PBMC IC50 (human NLRP3 [3]; relative to Compound 10A): 21 fold; pIC50 (mouse NLRP3): 6.77; fold increase in potency as measured by mWB IC50 (mouse NLRP3; relative to Compound 10A): 11 fold
C[C@H]1C[C@@H](NC(=O)C2(c3ccc(Cl)cc3O)CC2)CN(c2nnn[nH]2)C1 [Compound 47A, 1-(4-chloro-2-hydroxyphenyl)-N-((3R,5S)-5-methyl-1-(1H-tetrazol-5-yl)piperidin-3-yl)cyclopropane-1-carboxamide]	> 6.00	> 6.00	> 8.00	> 6.00	7.32	8.17	fold increase in binding activity (SPA IC50) (human NLRP3 [1]; relative to Compound 46A): 18 fold; pIC50 (human NLRP3 [2]; read-out: hWB IC50): 6.66; fold increase in potency as measured by hWB IC50 (human NLRP3 [2]; relative to Compound 46A): > 11 fold; fold increase in potency as measured by PBMC IC50 (human NLRP3 [3]; relative to Compound 46A): 15 fold; pIC50 (mouse NLRP3): 7.46; fold increase in potency as measured by mWB IC50 (mouse NLRP3; relative to Compound 46A): 4.9 fold
C[C@H]1CCN(c2nnn[nH]2)C[C@@H]1NC(=O)C1(c2ccc(Cl)cc2)CC1 [Compound 49C, 1-(4-chlorophenyl)-N-[(3R,4S)-4-methyl-1-(1H-tetrazol-5-yl)-3-piperidyl]cyclopropanecarboxamide]	5.00 to 6.00	5.52 to 5.70	6.30 to 7.00	5.52 to 5.70			
